Source: US6448245B1, “Methods of and compounds for inhibiting calpains” (The United States of America as represented by the …, priority 2000, dated 2002)
“And” between values parts separate entries of the source, which are not always exact repeats. Equal values may be shown once. “Also recorded” adds a separate entry of the source.

Assays:
m-calpain = target: T1, m-calpain (Rattus norvegicus, UniProt Q07009); assay: Calpain inhibition in whole PC12 cells, m-calpain activation; type: cell-based; details: calcium 1.4 mM, 10 μM ionomycin
T1 construct: endogenous in cells; host or cells: whole PC12 cells
T1 sequence (Q07009 20-700 limits assumed): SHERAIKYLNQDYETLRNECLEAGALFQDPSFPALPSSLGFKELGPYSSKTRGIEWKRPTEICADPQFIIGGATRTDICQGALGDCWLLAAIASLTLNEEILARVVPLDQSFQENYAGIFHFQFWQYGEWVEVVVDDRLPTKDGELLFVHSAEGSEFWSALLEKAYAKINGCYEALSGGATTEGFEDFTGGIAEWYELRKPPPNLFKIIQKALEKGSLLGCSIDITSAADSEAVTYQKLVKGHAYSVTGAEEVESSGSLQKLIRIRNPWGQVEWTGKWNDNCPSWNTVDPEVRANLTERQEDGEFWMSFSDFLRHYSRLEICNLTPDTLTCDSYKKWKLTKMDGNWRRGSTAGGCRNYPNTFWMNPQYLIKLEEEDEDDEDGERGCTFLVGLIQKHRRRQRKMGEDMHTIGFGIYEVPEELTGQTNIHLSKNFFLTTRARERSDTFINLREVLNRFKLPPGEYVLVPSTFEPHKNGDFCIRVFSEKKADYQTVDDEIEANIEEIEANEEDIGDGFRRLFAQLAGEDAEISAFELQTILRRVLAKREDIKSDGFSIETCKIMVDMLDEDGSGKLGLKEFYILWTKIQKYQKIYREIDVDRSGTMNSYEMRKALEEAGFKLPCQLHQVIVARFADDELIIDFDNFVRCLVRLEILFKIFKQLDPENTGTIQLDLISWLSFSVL
T1 sequence (Q64537 1-270 partner): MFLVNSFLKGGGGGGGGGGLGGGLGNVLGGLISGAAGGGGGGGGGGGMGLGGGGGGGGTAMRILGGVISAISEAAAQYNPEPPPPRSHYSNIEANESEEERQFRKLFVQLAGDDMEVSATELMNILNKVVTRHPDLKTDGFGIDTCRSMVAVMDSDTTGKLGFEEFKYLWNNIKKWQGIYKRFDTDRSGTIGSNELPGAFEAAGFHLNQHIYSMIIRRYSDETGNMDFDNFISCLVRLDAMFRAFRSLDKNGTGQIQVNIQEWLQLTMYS
Method: Whole cell enzymatic activity was measured as previously described in DePetrillo, Neurochem. 68:1863-69 (1997). The same four inhibitor concentrations were tested, but the substrate concentration was held at 80 μM.

[1] = system: hippocampal primary neurons
Method: Hippocampal primary neuron cell cultures were prepared according to the methods described by Mattson, et al., Methods Cell Biol., 46:187-216 (1995). Hippocampi were obtained from rat embryos and incubated for 15 minutes in a solution of 2 mg/ml trypsin in Hank's Balanced Salt Solution (HBSS) containing 2.4 g/l N-[2-hydroxyethyl]piperazine-N′-[2-ethanesulfonic acid] (HEPES) and 10 mg/l gentamicin, pH 7.2 at a concentration of 2 hippocampi/ml. The hippocampi were then rinsed three times in 10 ml of HBSS and incubated for 5 min. in a solution of 1 mg trypsin inhibitor/ml of HBSS. Finally, the cells were rinsed three times with 10 ml of HBSS.
Cells were dissociated by trituration through the narrowed bore of a fire-polished Pasteur pipette and distributed to 35 mm polyethylenimine-coated plastic culture dishes containing 1 ml of MEM+. […]
Each of the cultures was photographed with phase-contrast inverted Zeiss microscope attached with a 35 mm camera at pre-treatment, 24 hours, and 48 hours after treatment at the same location marked by a scratched grid on the bottom of culture dish. […] Neuronal survival was quantified by counting the number of neurons on each of the photos. Neuronal viability was identified and determined by morphological criteria: viable neurons had phase-bright somas and intact processes while nonviable neurons had phase-dark, vacuolated somas, and fragmented neuritis. […]

[2] = system: calpain-mediated spectrin breakdown; assay: Spectrin breakdown in PC12 cells, western blot with anti-spectrin antibodies; type: cell-based; details: 0.1 μM, 2 mM Ca2+ fifteen minutes, 10 μM ionomycin
Text: A western blot of the cell extracts was probed with anti-spectrin antibodies (commercially available from Chemicon International, Inc., of Temecula, Calif.). Undigested spectrin appeared as a band at approximately 240 kD. The spectrin breakdown products appeared at approximately 150 kD, and followed a ladder pattern associated with limited and specific proteolysis.

[3] = system: calpain (μ-calpain and m-calpain isoforms); assay: Calpain activity in PC12 cell extracts, fluorescence assay with N-succinyl-leu-tyr 7-amino-4-methylcoumarin; type: biochemical
Method: PC12 cells were grown in an RPMI solution containing 5% fetal bovine serum, 10% heat-inactivated horse serum, and 50 mg/L gentamicin. Cells were isolated by centrifulgation, and cell pellets suspended in 1 mL of extract buffer, containing 30 mM TRIS at pH 6.8, 15 mMEDTA, 5 mMEGTA, 1 mMDTT, […], 0.1 mg/mL AEBSF, 14.4 mM 2-mercaptoethanol, and 1% triton x-100. After 1 cycle of freeze-thaw, the cell extract was centrifuged at 4° C. at 14,000 g for 20 minutes. The supernatant was removed and assayed.
Calpain activity was measuring using N-succinyl-leu-tyr 7-amino-4-methylcoumarin as the specific peptide substrate. Fluorescence was measured in a 96-well microplate format (Dyrex Technologies (UK), Middlesex) with a 380 nm excitation filter and 480 nm emission filter. […]
Data consisting of relative fluorescence units (RFU) was obtained every two minutes for 1 hour. Data was analyzed based on initial rate, defined as the slope of the increase of the obtained RFU value up to a maximum length of 10 minutes. […]
Model sufficiency was evaluated based on whether the objective function converged with a tolerance factor of 1×10^−10, the overall F-value for the regression, and the magnitude and sign of the parameters obtained after convergence. […]

CC(C)c1nc(CN(C)C(=O)NC(C(=O)N[C@@H](Cc2ccccc2)CC(O)[C@H](Cc2ccccc2)NC(=O)OCc2cncs2)C(C)C)cs1 (relative stereo) [Ritonavir, 10-hydroxy-2-methyl-5-(1-methylethyl)-1-[2-(1-methylethyl)-4-thiazolyl]-3,6-dioxo-8,11-bis(phenylmethyl)-2,4,7,12-tetraazatridecan-13-oic acid, 5-thiazolylmethyl ester, [5S-(5R*,8R* 10R* 11R*)]]
mode of inhibition (m-calpain): competitive inhibition | level of cytoprotection ([1]; 100 pM + HNE, no difference from control group): 100% | cell death ([1]; rat, 24 h, 10 μM, pH 7.2): ~100% | inhibition of spectrin breakdown [2]: inhibit spectrin breakdown | mode of inhibition (best model fit) ([3]; F-value 118.48, p≦0.00001): […] | Ki ([3]; competitive model, mean±standard error of the mean, aggregate of both calpain isoforms, read-out: inhibition constant Ki for calpain): […]
